# Key:
# Format in all cases: physicochemical
# [1] = Solution stability of different crystal forms of PNAC in aqueous solution (500 mg/mL); conditions: 500 mg/mL in purified water
# Description: The stability differences between different salt forms and different crystal forms in aqueous solution under the condition of high concentration (500 mg/mL) were compared, and the results are shown in Table 5 (there is no difference in the dissolution and solution storage process of the samples of PNAC crystal forms I-IV).
# [2] = Stability during preparation (grinding, tableting, airflow crushing; XRPD)
# Description: Three groups of solid samples were characterized by XRPD to evaluate their physical stability.
# [3] = Solid-state stability of PNAC crystal forms (storage; XRPD and HPLC)
# Description: The third group was kept under the conditions of 25° C. and 60% relative humidity for 2 weeks to obtain a solid sample, and then the three groups of solid samples were respectively evaluated for physical and chemical stability by XRPD and HPLC assay.
# The purity of main peak was calculated by normalization method.
# [4] = Airflow crushing (injection pressure 0.4 MPa, pulverization pressure 0.2 MPa)
# [5] = solid, 60° C. for 24 h, 40° C. and 75% relative humidity for two weeks, 25° C. and 60% relative humidity for 2 weeks
compound,measurement,setting,value
"O=C([O-])CCCCCCCNC(=O)c1ccccc1O.[Na+] [SNAC, monosodium N-[8-(2-hydroxybenzoyl)amino]octanoate]",storage time at which flocs began to appear in the solution,[1]; 4° C.,0.5 h
same,storage time at which flocs began to appear in the solution,[1]; room temperature,1 h
"O=C([O-])CCCCCCCNC(=O)c1ccccc1O.[K+] [crystal Form I, Potassium N-[8-(2-hydroxybenzoyl)amino]octanoate]","change of crystal form after grinding, tableting and airflow crushing (XRPD)",[2],does not change
same,crystal form after treatment (XRPD),[2]; [4],crystal Form I
same,crystal form after treatment (XRPD),[2]; Manual grinding (10 min),crystal Form I
same,crystal form after treatment (XRPD),[2]; Tableting (pressure of 3 kN),crystal Form I
same,overall solid-state stability (conclusion from Table 15),[3],very stable
same,crystal form after treatment (XRPD),"[3]; 25° C./60% RH, 2 W",crystal Form II
same,crystal form after treatment (XRPD),"[3]; 25° C./75% RH, 2 W",crystal Form II
same,crystal form after treatment (XRPD),"[3]; 60° C., 24 h",crystal Form I
"O=C([O-])CCCCCCCNC(=O)c1ccccc1O.[K+] [crystal Form II, Potassium N-[8-(2-hydroxybenzoyl)amino]octanoate]","change of crystal form after grinding, tableting and airflow crushing (XRPD)",[2],does not change
same,crystal form after treatment (XRPD),[2]; [4],crystal Form II
same,crystal form after treatment (XRPD),[2]; Manual grinding (10 min),crystal Form II
same,crystal form after treatment (XRPD),[2]; Tableting (pressure of 3 kN),crystal Form II
same,overall solid-state stability (conclusion from Table 15),[3],very stable
same,crystal form after treatment (XRPD),"[3]; 25° C./60% RH, 2 W",crystal Form II
same,crystal form after treatment (XRPD),"[3]; 25° C./75% RH, 2 W",crystal Form II
same,crystal form after treatment (XRPD),"[3]; 60° C., 24 h",crystal Form II
same,crystal form after storage (XRPD),[3]; [5],the crystal form has not changed
same,relative purity (HPLC) after storage,[3]; [5],100%
"O=C([O-])CCCCCCCNC(=O)c1ccccc1O.[K+] [crystal Form III, Potassium N-[8-(2-hydroxybenzoyl)amino]octanoate]",crystal form after treatment (XRPD),"[3]; 25° C./60% RH, 2 W",crystal Form II
same,crystal form after treatment (XRPD),"[3]; 25° C./75% RH, 2 W",crystal Form II
same,crystal form after treatment (XRPD),"[3]; 60° C., 24 h",crystal Form I
"O=C([O-])CCCCCCCNC(=O)c1ccccc1O.[K+] [crystal Form IV, Potassium N-[8-(2-hydroxybenzoyl)amino]octanoate]",crystal form after treatment (XRPD),[2]; [4],crystal Form IV
same,crystal form after treatment (XRPD),[2]; Manual grinding (10 min),crystal Form IV
same,crystal form after treatment (XRPD),[2]; Tableting (pressure of 3 kN),crystal Form IV
same,crystal form after treatment (XRPD),"[3]; 25° C./60% RH, 2 W",crystal Form II
same,crystal form after treatment (XRPD),"[3]; 25° C./75% RH, 2 W",crystal Form II
same,crystal form after treatment (XRPD),"[3]; 60° C., 24 h",crystal Form I
